Source: publication PMC11618052, “Design, synthesis, and antiproliferative activity of new 1,2,3-triazole/quinazoline-4-one hybrids as dual EGFR/BRAF^V600E inhibitors” (RSC Advances, 2024)
Where “and” joins values, the source holds several entries; their conditions need not be identical. Equal values may be shown once.

What was measured:
Caspase-8 = Caspase-8 level assay in MCF-7; type: cell-based, human; details: for Caspase-8 Fold change: MCF-7, versus untreated control; for Caspase-8 Conc.: MCF-7 cancer cell line
Protocol: Compounds 8g and 8h were evaluated as caspase-3, 8 and Bax activators and as down-regulator of the anti-apoptotic protein Bcl2 against the MCF-7 breast cancer cell line.[40] Appendix A ^† contains more details.
Compound 8g had the most overexpression of caspase-8 (2.60 ng mL^−1), followed by compound 8h (2.10 ng mL^−1) and staurosporine as a control (1.80 ng mL^−1). […]
monitored, and the substrate reaction stopped before the O.D. of the positive wells exceeds the limits of the instrument. The O.D. values at 450 nm can only be read after the Stop Solution has been added to each well. If using a reader that records only to 2.0 O.D., stopping the assay after […]
Add 100 μl of Stop Solution to each well. Tap side of plate gently to mix. The solution in the wells should change from blue to yellow. Read the absorbance of each well at 450 nm having blanked the plate reader against a chromogen blank composed of 100 μl each of Stabilized Chromogen and Stop Solution. Read the plate within 2 hours after adding the Stop Solution. Use a curve fitting software to generate the standard curve. A four-parameter algorithm provides the best standard curve fit. Read the concentrations for unknown samples and controls from the standard curve. Multiply value(s) obtained for sample(s) by the appropriate dilution factor to correct for the dilution in step 3. Samples producing signals greater than that of the highest standard should be diluted in Standard Diluent Buffer and reanalyzed.
4.2.1.6. Caspase-8 activation assay
Cells were obtained from American Type Culture Collection, cells were grown in RPMI 1640 containing 10% fetal bovine serum at 37°C, stimulated with the compounds to be tested for caspase8, and lysed with Cell Extraction Buffer. This lysate was diluted in Standard Diluent Buffer over the range of the assay and measured for human active caspase-8 content. (Cells are Plated in a density of 1.2 – 1.8 × 10,000 cells/well in a volume of 100µl complete growth medium + 100 ul of the tested compound per well in a 96-well plate for 24 hours before the enzyme assay for Tubulin.). The absorbance of each microwell was read on a spectro-photometer at 450 nm. A standard curve is prepared from 7human Caspase-8 standard dilutions and human Caspase-8 concentration determined.
4.2.1.7. Bax activation assay

Bax = Bax level assay in MCF-7; type: cell-based, human; details: for Bax Fold change: MCF-7, versus untreated control; for Bax Conc.: MCF-7 cancer cell line
Protocol: Compounds 8g and 8h were evaluated as caspase-3, 8 and Bax activators and as down-regulator of the anti-apoptotic protein Bcl2 against the MCF-7 breast cancer cell line.[40] Appendix A ^† contains more details. […]
Bring all reagents, except the human Bax-α Standard, to room temperature for at least 30 minutes prior to opening. The human Bax-α Standard solution should not be left at room temperature for more than 10 minutes. All standards, controls and samples should be run in duplicate. Refer to the Assay Layout Sheet to determine the number of wells to be used and put any remaining wells with the desiccant back into the pouch and seal the ziploc. Store unused wells at 4 °C. Pipet 100 μL of Assay Buffer into the S0 (0 pg/mL standard) wells. Pipet 100 μL of Standards #1 through #6 into the appropriate wells. Pipet 100 μL of the Samples into the appropriate wells. Tap the plate gently to mix the contents. Seal the plate and incubate at room temperature on a plate shaker for 1 hour at ~500 rpm. Empty the contents of the wells and wash by adding 400 μL of wash solution to every well. Repeat the wash 4 more times for a total of 5 washes. After the final wash, empty or aspirate the wells and firmly tap the plate on a lint free paper towel to remove any remaining wash buffer.
Pipet 100 μL of yellow Antibody into each well, except the Blank. Seal the plate and incubate at room temperature on a plate shaker for 1 hour at ~500 rpm. Empty the contents of the wells and wash by adding 400 μL of wash solution to every well. Repeat the wash 4 more times for a total of 5 washes. After the final wash, empty or aspirate the wells and firmly tap the plate on a lint free paper towel to remove any remaining wash buffer. Add 100 μL of blue Conjugate to each well, except the Blank. Seal the plate and incubate at room temperature on a plate shaker for 30 minutes […]
Pipet 100 μL of Substrate Solution into each well. Incubate for 30 minutes at room temperature on a plate shaker at ~500 rpm. Pipet 100 μL Stop Solution to each well. Blank the plate reader against the Blank wells, read the optical density at 450 nm. Calculate the average net Optical Density (OD) bound for each standard and sample by subtracting the average Blank OD from the average OD for each standard and sample. Using linear graph paper, plot the Average Net OD for each standard versus Bax concentration in each standard. Approximate a straight line through the points.
The concentration of Bax in the unknowns can be determined by interpolation. […]
Remove plate cover and empty the wells. […]
Incubate the microwell strips at room temperature (18° to 25°C) for about 15 minutes, if available on a rotator set at 100 rpm.

Row | Compound | Caspase-8 Fold change (Caspase-8) | Caspase-8 Conc. (Caspase-8) | Bax Fold change (Bax) | Bax Conc. (Bax) | Caspase-8 Conc. (Caspase-8; listed as staurosporine) [ng/mL] | Bax Conc. (Bax; listed as staurosporine) [pg/mL]
1 | Cc1ccc(-n2cc(CSc3nc4ccccc4c(=O)n3-c3ccc(C)cc3)nn2)cc1 [Compound 8h, 2-(((1-(p-Tolyl)-1H-1,2,3-triazol-4-yl)methyl)thio)-3-(p-tolyl)quinazolin-4(3H)-one] | 23 | 2.10 ng/mL and 2.10 ± 0.20 ng/mL | 37 | 295 pg/mL and 295 ± 9 pg/mL | – | –
2 | CN[C@@H]1C[C@H]2O[C@@](C)([C@@H]1OC)n1c3ccccc3c3c4c(c5c6ccccc6n2c5c31)C(=O)NC4 [Staurosporine, reference compound] | 20 | 1.80 ± 0.10 ng/mL | 35 | 280 ± 7 pg/mL | 1.80 | 280
3 | COc1ccc(-n2cc(CSc3nc4ccccc4c(=O)n3-c3ccc(C)cc3)nn2)cc1 [Compound 8g, 2-(((1-(4-Methoxyphenyl)-1H-1,2,3-triazol-4-yl)methyl)thio)-3-(p-tolyl)quinazolin-4(3H)-one] | 28 | 2.60 ng/mL and 2.60 ± 0.20 ng/mL | 39 | 315 pg/mL and 315 ± 9 pg/mL | – | –
